Tests used:
Assay type in all cases: in vivo
[1] = tested on: field corn (Zea mays L., var. Dekalb 535, CORN); assay: Pre-emerge test, crop safety; conditions: rated 14 days after application, 0 = no damage, 100 = complete death
Procedure, shortened: (§1)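 Sandy loam pots; pre-emerge: sown 1 d pre-spray, surface-watered after, then bottom-watered. Post-emerge: sown 8–21 d before, 2–3 leaf stage, + 0.25% v/v NIS, bottom-watered. Acetone, 187 l/ha track spray, 15–1000 g ai/ha. 0–100 injury score, day 14.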

[2] = tested on: upland rice (Oryza sp., var. Tebonnet, RICE); assay: Pre-emerge test, crop safety; conditions: rated 14 days after application, 0 = no damage, 100 = complete death
Procedure, shortened: as §1

[3] = tested on: johnsongrass (Sorghum halepense, SORHA); assay: Post-emerge test, greenhouse herbicide activity screening; conditions: post-emerge, 14 days after application, rating scale 0-100
Procedure, shortened: (§2)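 Rating: 0–100 visual injury, 14 DAA. Application: acetone, 187 l/ha, 15–1000 g ai/ha, flat-fan track sprayer with nozzle 40–45 cm above soil or canopy. Post-emerge runs used 0.25% v/v surfactant on 2–3 leaf plants.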

[4] = tested on: redroot pigweed (Amaranthus retroflexus, AMARE); assay: as above; conditions: post-emerge, 14 days after application, rating scale 0-100
Procedure, shortened: as §2

[5] = tested on: large crabgrass (Digitaria sanguinalis, DIGSA); assay: as above; conditions: post-emerge, 14 days after application, rating scale 0-100
Procedure, shortened: as §2

[6] = tested on: sicklepod (Cassia obtusifolia, CASOB); assay: as above; conditions: post-emerge, 14 days after application, rating scale 0-100
Procedure, shortened: as §2

[7] = tested on: velvetleaf (Abutilon theophrasti, ABUTH); assay: as above; conditions: post-emerge, 14 days after application, rating scale 0-100
Procedure, shortened: as §2

[8] = tested on: green foxtail (Setaria viridis, SETVI); assay: as above; conditions: post-emerge, 14 days after application, rating scale 0-100
Procedure, shortened: as §2

[9] = tested on: lambsquarters (Chenopodium album, CHEAL); assay: as above; conditions: post-emerge, 14 days after application, rating scale 0-100
Procedure, shortened: as §2

[10] = tested on: barnyardgrass (Echinochloa crus-galli, ECHCG); assay: as above; conditions: post-emerge, 14 days after application, rating scale 0-100
Procedure, shortened: as §2

[11] = tested on: ivyleaf morningglory (Ipomoea hederacea, IPOHE); assay: as above; conditions: post-emerge, 14 days after application, rating scale 0-100
Procedure, shortened: as §2

[12] = tested on: field corn (Zea mays L., var. Dekalb 535, CORN); assay: Post-emerge test, crop safety; conditions: post-emerge, 14 days after application, rating scale 0-100
Procedure, shortened: (§3)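 Applied at 15–1000 g ai/ha from acetone in 187 l/ha spray volume. Post-emergence applications included 0.25% v/v non-ionic surfactant and reached plants sown 8–21 days before. Pre-emergence applications were incorporated by surface watering. Efficacy or crop damage was rated on a 0–100 scale after 14 days.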

[13] = tested on: upland rice (Oryza sp., var. Tebonnet, RICE); assay: Post-emerge test, crop safety; conditions: post-emerge, 14 days after application, rating scale 0-100
Procedure, shortened: as §3

[14] = tested on: johnsongrass (Sorghum halepense, SORHA); assay: Pre-emerge test, greenhouse herbicide activity screening; conditions: rated 14 days after application, 0 = no damage, 100 = complete death
Procedure, shortened: as §3

[15] = tested on: large crabgrass (Digitaria sanguinalis, DIGSA); assay: as above; conditions: rated 14 days after application, 0 = no damage, 100 = complete death
Procedure, shortened: as §3

[16] = tested on: sicklepod (Cassia obtusifolia, CASOB); assay: as above; conditions: rated 14 days after application, 0 = no damage, 100 = complete death
Procedure, shortened: as §3

[17] = tested on: velvetleaf (Abutilon theophrasti, ABUTH); assay: as above; conditions: rated 14 days after application, 0 = no damage, 100 = complete death
Procedure, shortened: as §3

[18] = tested on: green foxtail (Setaria viridis, SETVI); assay: as above; conditions: rated 14 days after application, 0 = no damage, 100 = complete death
Procedure, shortened: as §3

[19] = tested on: lambsquarters (Chenopodium album, CHEAL); assay: as above; conditions: rated 14 days after application, 0 = no damage, 100 = complete death
Procedure, shortened: as §3

[20] = tested on: barnyardgrass (Echinochloa crus-galli, ECHCG); assay: as above; conditions: rated 14 days after application, 0 = no damage, 100 = complete death
Procedure, shortened: as §3

[21] = tested on: ivyleaf morningglory (Ipomoea hederacea, IPOHE); assay: as above; conditions: rated 14 days after application, 0 = no damage, 100 = complete death
Procedure, shortened: as §3

[22] = tested on: redroot pigweed (Amaranthus retroflexus, AMARE); assay: as above; conditions: rated 14 days after application, 0 = no damage, 100 = complete death
Procedure, shortened: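 Plants grown in 10 cm pots of sandy loam mix received acetone-dissolved compounds through a moving flat-fan nozzle. Doses ranged from 15 to 1000 g ai/ha. Pre-emerge pots were seeded one day earlier, post-emerge pots 8–21 days earlier. Fourteen days on, each pot was graded 0–100 for damage.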

In the case of COc1c(Cl)cc(F)c(-n2c(=O)cc(C(F)(F)F)n(C)c2=O)c1NC(=O)C(C)=Cc1ccccc1 [2-81], the “Pre-emerge phytotoxicity rating (0-100), crop damage, CORN” value (“Pre-emerge phytotoxicity rating … CORN” below) ([1]; 63 g ai/ha) is reported as 0, the “Pre-emerge phytotoxicity rating … CORN” value ([1]; 250 g ai/ha) is reported as 90 and the “Pre-emerge phytotoxicity rating (0-100), crop damage, RICE” value (“Pre-emerge phytotoxicity rating … RICE” for short) ([2]; 63 g ai/ha) is reported as 70. For the same compound, the “Pre-emerge phytotoxicity rating … RICE” value ([2]; 250 g ai/ha) was 90, the “phytotoxicity rating SORHA” value ([3]; 63 g ai/ha) was 20 and the “phytotoxicity rating SORHA” value ([3]; 250 g ai/ha) was 80. The “phytotoxicity rating AMARE” value ([4]; 63 g ai/ha) was 100, the “phytotoxicity rating AMARE” value ([4]; 250 g ai/ha) was 100 and the “phytotoxicity rating DIGSA” value ([5]; 63 g ai/ha) was 20. For the same compound, the “phytotoxicity rating DIGSA” value ([5]; 250 g ai/ha) was 80, the “phytotoxicity rating CASOB” value ([6]; 63 g ai/ha) was 70 and the “phytotoxicity rating CASOB” value ([6]; 250 g ai/ha) was 100. The “phytotoxicity rating ABUTH” value ([7]; 63 g ai/ha) was 100, the “phytotoxicity rating ABUTH” value ([7]; 250 g ai/ha) was 100 and the “phytotoxicity rating SETVI” value ([8]; 63 g ai/ha) was 40. The “phytotoxicity rating SETVI” value ([8]; 250 g ai/ha) was 60, the “phytotoxicity rating CHEAL” value ([9]; 63 g ai/ha) was 90 and the “phytotoxicity rating CHEAL” value ([9]; 250 g ai/ha) was 100. The “phytotoxicity rating ECHCG” value ([10]; 63 g ai/ha) was 50, the “phytotoxicity rating ECHCG” value ([10]; 250 g ai/ha) was 90 and the “phytotoxicity rating IPOHE” value ([11]; 63 g ai/ha) was 100. For the same compound, the “phytotoxicity rating IPOHE” value ([11]; 250 g ai/ha) was 100, the “phytotoxicity rating CORN” value ([12]; 63 g ai/ha) was 30 and the “phytotoxicity rating CORN” value ([12]; 250 g ai/ha) was 90. For the same compound, the “phytotoxicity rating RICE” value ([13]; 63 g ai/ha) was 60, the “phytotoxicity rating RICE” value ([13]; 250 g ai/ha) was 90 and the “Pre-emerge Herbicidal Activity, phytotoxicity rating (0-100), SORHA” value (from here on “Pre-emerge Herbicidal Activity … SORHA”) ([14]; 63 g ai/ha) was 90. For the same compound, the “Pre-emerge Herbicidal Activity … SORHA” value ([14]; 250 g ai/ha) was 90, the “Pre-emerge Herbicidal Activity, phytotoxicity rating (0-100), DIGSA” value (shortened to “Pre-emerge Herbicidal Activity … DIGSA”) ([15]; 63 g ai/ha) was 100 and the “Pre-emerge Herbicidal Activity … DIGSA” value ([15]; 250 g ai/ha) was 100. The “Pre-emerge Herbicidal Activity, phytotoxicity rating (0-100), CASOB” value (“Pre-emerge Herbicidal Activity … CASOB” below) ([16]; 63 g ai/ha) was 90, the “Pre-emerge Herbicidal Activity … CASOB” value ([16]; 250 g ai/ha) was 100 and the “Pre-emerge Herbicidal Activity, phytotoxicity rating (0-100), ABUTH” value (from here on “Pre-emerge Herbicidal Activity … ABUTH”) ([17]; 63 g ai/ha) was 100. For the same compound, the “Pre-emerge Herbicidal Activity … ABUTH” value ([17]; 250 g ai/ha) was 100, the “Pre-emerge Herbicidal Activity, phytotoxicity rating (0-100), SETVI” value (shortened to “Pre-emerge Herbicidal Activity … SETVI”) ([18]; 63 g ai/ha) was 100 and the “Pre-emerge Herbicidal Activity … SETVI” value ([18]; 250 g ai/ha) was 100. The “Pre-emerge Herbicidal Activity, phytotoxicity rating (0-100), CHEAL” value (“Pre-emerge Herbicidal Activity … CHEAL” below) ([19]; 63 g ai/ha) was 100, the “Pre-emerge Herbicidal Activity … CHEAL” value ([19]; 250 g ai/ha) was 100 and the “Pre-emerge Herbicidal Activity, phytotoxicity rating (0-100), ECHCG” value (from here on “Pre-emerge Herbicidal Activity … ECHCG”) ([20]; 63 g ai/ha) was 70. The “Pre-emerge Herbicidal Activity … ECHCG” value ([20]; 250 g ai/ha) was 100, the “Pre-emerge Herbicidal Activity, phytotoxicity rating (0-100), IPOHE” value (shortened to “Pre-emerge Herbicidal Activity … IPOHE”) ([21]; 63 g ai/ha) was 60 and the “Pre-emerge Herbicidal Activity … IPOHE” value ([21]; 250 g ai/ha) was 100. The “Pre-emerge Herbicidal Activity, phytotoxicity rating (0-100), AMARE” value (“Pre-emerge Herbicidal Activity … AMARE” below) ([22]; 63 g ai/ha) was 100 and the “Pre-emerge Herbicidal Activity … AMARE” value ([22]; 250 g ai/ha) was 100.
COc1c(Cl)cc(F)c(-n2c(=O)cc(C(F)(F)F)n(C)c2=O)c1NC(=O)C=Cc1ccccc1Cl [2-82] was tested, and the “Pre-emerge phytotoxicity rating … CORN” value ([1]; 63 g ai/ha) was 0, the “Pre-emerge phytotoxicity rating … CORN” value ([1]; 250 g ai/ha) was 0 and the “Pre-emerge phytotoxicity rating … RICE” value ([2]; 63 g ai/ha) was 10. The “Pre-emerge phytotoxicity rating … RICE” value ([2]; 250 g ai/ha) was 10, the “phytotoxicity rating SORHA” value ([3]; 63 g ai/ha) was 0 and the “phytotoxicity rating SORHA” value ([3]; 250 g ai/ha) was 30. For the same compound, the “phytotoxicity rating AMARE” value ([4]; 63 g ai/ha) was 100, the “phytotoxicity rating AMARE” value ([4]; 250 g ai/ha) was 100 and the “phytotoxicity rating DIGSA” value ([5]; 63 g ai/ha) was 0. The “phytotoxicity rating DIGSA” value ([5]; 250 g ai/ha) was 30, the “phytotoxicity rating CASOB” value ([6]; 63 g ai/ha) was 100 and the “phytotoxicity rating CASOB” value ([6]; 250 g ai/ha) was 100. The “phytotoxicity rating ABUTH” value ([7]; 63 g ai/ha) was 100, the “phytotoxicity rating ABUTH” value ([7]; 250 g ai/ha) was 100 and the “phytotoxicity rating SETVI” value ([8]; 63 g ai/ha) was 40. The “phytotoxicity rating SETVI” value ([8]; 250 g ai/ha) was 50, the “phytotoxicity rating CHEAL” value ([9]; 63 g ai/ha) was 90 and the “phytotoxicity rating CHEAL” value ([9]; 250 g ai/ha) was 90. The “phytotoxicity rating ECHCG” value ([10]; 63 g ai/ha) was 20, the “phytotoxicity rating ECHCG” value ([10]; 250 g ai/ha) was 30 and the “phytotoxicity rating IPOHE” value ([11]; 63 g ai/ha) was 60. The “phytotoxicity rating IPOHE” value ([11]; 250 g ai/ha) was 90, the “phytotoxicity rating CORN” value ([12]; 63 g ai/ha) was 10 and the “phytotoxicity rating CORN” value ([12]; 250 g ai/ha) was 25. The “phytotoxicity rating RICE” value ([13]; 63 g ai/ha) was 50, the “phytotoxicity rating RICE” value ([13]; 250 g ai/ha) was 40 and the “Pre-emerge Herbicidal Activity … SORHA” value ([14]; 63 g ai/ha) was 0. For the same compound, the “Pre-emerge Herbicidal Activity … SORHA” value ([14]; 250 g ai/ha) was 20, the “Pre-emerge Herbicidal Activity … DIGSA” value ([15]; 63 g ai/ha) was 30 and the “Pre-emerge Herbicidal Activity … DIGSA” value ([15]; 250 g ai/ha) was 80. For the same compound, the “Pre-emerge Herbicidal Activity … CASOB” value ([16]; 63 g ai/ha) was 80, the “Pre-emerge Herbicidal Activity … CASOB” value ([16]; 250 g ai/ha) was 100 and the “Pre-emerge Herbicidal Activity … ABUTH” value ([17]; 63 g ai/ha) was 100. For the same compound, the “Pre-emerge Herbicidal Activity … ABUTH” value ([17]; 250 g ai/ha) was 100, the “Pre-emerge Herbicidal Activity … SETVI” value ([18]; 63 g ai/ha) was 80 and the “Pre-emerge Herbicidal Activity … SETVI” value ([18]; 250 g ai/ha) was 100. The “Pre-emerge Herbicidal Activity … CHEAL” value ([19]; 63 g ai/ha) was 100, the “Pre-emerge Herbicidal Activity … CHEAL” value ([19]; 250 g ai/ha) was 100 and the “Pre-emerge Herbicidal Activity … ECHCG” value ([20]; 63 g ai/ha) was 0. The “Pre-emerge Herbicidal Activity … ECHCG” value ([20]; 250 g ai/ha) was 0, the “Pre-emerge Herbicidal Activity … IPOHE” value ([21]; 63 g ai/ha) was 0 and the “Pre-emerge Herbicidal Activity … IPOHE” value ([21]; 250 g ai/ha) was 0. For the same compound, the “Pre-emerge Herbicidal Activity … AMARE” value ([22]; 63 g ai/ha) was 100 and the “Pre-emerge Herbicidal Activity … AMARE” value ([22]; 250 g ai/ha) was 100.
